The record followed here is patent US20240124528A1, “ANTAGONIST OF INTERLEUKIN-17B RECEPTOR (IL-17RB) AND USE THEREOF” (Academia Sinica, priority 2020, published 2024).

The structures appear in SMILES notation. “Also recorded” adds a separate entry of the source.

Common to all, as to format: cell-based, human
The subject of one test is MLKs. Put plainly: Immunoblotting of IL-17B-induced phosphorylation after CEP-1347 pretreatment. The following applies: CEP-1347 200 nM pretreatment, then 50 ng/ml rIL-17B 30 mins; AsPC1, BxPC3, MB361, MB468. Here is the method: (§1) FIGS. 15A to 15D include charts showing that CEP-1347 inhibits IL-17RB Y447 phosphorylation, ERK1/2 phosphorylation, and aggressiveness of both pancreatic and breast cancer cells. Pancreatic cancer cells (AsPC1 and BxPC3) and breast cancer cells (MB361 and MB468) were transduced with lentiviral shLacZ (control) and lentiviral shMLK4, separately. In comparison to MLK4-knockdown cells, shLacZ-transduced cancer cells were pretreated with CEP-1347 (200 nM), a non-selective inhibitor of MLKs, before adding 50 ng/ml rIL-17B in serum-free conditions for 30 mins. The cell lysates were immunoblotted directly with the indicated antibodies (FIG. 15A). The same cells were measured by RT-qPCR for the cytokine gene expression (n=3) (FIG. 15B), for SACF assay (n=4) (FIG. 15C), and for invasion assay (n=4) (FIG. 15D). All the data are mean±s.d. *P<0.05, **P<0.01 by two-tailed Student's t-test.
Immunoblotting analysis was performed after proteins were separated by gradient SDS-PAGE (HR gradient gel solution, TFUGG420, TOOLS) and transferred to PVDF membrane, with overnight incubation with diluted primary antibody followed by diluted horseradish peroxidase-conjugated anti-rabbit, anti-mouse or anti-goat antibody (Jackson ImmunoResearch) as described (48-50). […] Optical density was determined using the National Institutes of Health ImageJ program.

For test [1], the system named is pancreatic cancer cells (AsPC1 and BxPC3) and breast cancer cells (MB361 and MB468). The test can be described thus: Invasion assay with CEP-1347. As to the method: as §1
For invasion assay, about 10^4 cells were seeded in the top chamber with Matrigel-coated membrane (24-well BD Falcon HTS Fluoro Block insert; pore size, 8 μm; BD Biosciences) in serum-free media containing rIL-17B, DMSO, or CEP-1347. Medium supplemented with 10% serum was used as a chemoattractant in the lower chamber. After 24- or 48 hrs incubation, the invading cells were fixed with methanol, stained with 4,6-diamidino-2-phenylindole (DAPI) and counted by fluorescence microscopy.

Test [2] has the same test system. The test can be described thus: RT-qPCR of cytokine gene expression after CEP-1347. The following applies: CEP-1347 200 nM. Here is the method:
as §1, with “All the data are mean±s.d. *P<0.05, **P<0.01 by two-tailed Student's t-test.” left out
Total RNA from cultured cells and tumor tissue was isolated using Trizol reagent (Thermo Fisher Scientific) and reversely transcribed with Transcriptor First Strand cDNA Synthesis Kit (Roche Life Science) for gene expression analysis according to manufacturer's instructions. Quantitative real-time RT-PCR assay was run on the StepOnePlus system (Applied Biosystems) using KAPA SYBR FAST qPCR Kit (Kapa Biosystems) according to manufacturer's instructions, and data was analyzed by StepOne Software v2.2.2. β-actin mRNA was used as an internal control. […]

For test [3] the test system is unchanged. The test can be described thus: SACF assay with CEP-1347. As to the method: as §1
Soft agar colony formation assay was performed as described (7). Briefly, 250010000 cells were seeded in a layer of 0.35% agar/complete growth medium over a layer of 0.5% agar/complete growth medium in a 12-well plate. Cell medium containing the indicated concentration of rIL-17B (R&D), DMSO (Sigma-Aldrich), or CEP-1347 (Tocris Bioscience) was replenished every three days. […] Crystal violet-stained colonies greater than 50 μm in size were counted and analyzed objectively by light microscopy.

In the case of `CCSCc1ccc2c(c1)c1c3c(c4c5cc(CSCC)ccc5n5c4c1n2[C@H]1C[C@](O)(C(=O)OC)[C@]5(C)O1)CNC3=O` [CEP-1347], in the test with MLKs, the ERK1/2 phosphorylation entry is recorded as “abrogated; also recorded: inhibits” and the “IL-17RB (Y447) phosphorylation” value is reported as “abrogated; also recorded: inhibits”. For the same molecule, the “invasion properties of the cancer cells” value in test [1] is “abrogated”. The cytokine gene expressions entry in test [2] is on record as “abrogated”. Further, the “aggressiveness of both pancreatic and breast cancer cells” value in test [3] (CEP-1347 200 nM, SACF and invasion assays) is recorded as “inhibits”. The colony formation entry in test [3] (CEP-1347, AsPC1, BxPC3, MB361, MB468) is “abrogated”.
